Results taken from patent publication US20110130384A1, “AMIDE COMPOUND” (TAKEDA PHARMACEUTICAL COMPANY LIMITED, priority 2008, published 2011).

Biological target: T1, human GPR52 (Homo sapiens, UniProt Q9Y2T5)
T1 construct: expressed in transfected cells; host or cells: CHO(dhfr-) cells
Assay: Increase of intracellular cAMP concentration in human GPR52-expressing CHO cell (AlphaScreen cAMP assay)
Format: cell-based
Conditions: 1 μM test compound, human GPR52-expressing CHO(dhfr-) cells, 37° C. for 30 min; intracellular cAMP with 1 μM Reference Example 124 = 100%, DMSO = 0%
Experimental: Increase of Intracellular cAMP Concentration in Human GPR52-Expressing CHO Cell
Using OptiPlate-384 (PerkinElmer Inc.), 1×10^4 human GPR52-expressing CHO(dhfr-) cells were incubated together with 1 μM of a test compound in an assay buffer (30 μL, HBSS (containing Ca^2+ and Mg^2+), 0.5% BSA, 100 μm IBMX, 100 μm Ro20-1724, 5 mM HEPES (pH 7.55)) at 37° C. for 30 min. Thereafter, according to the protocol of AlphaScreen cAMP Assay Kit (PerkinElmer Inc.), the intracellular cAMP concentration was measured by EnVision (PerkinElmer Inc.). The GPR52 agonist activity was calculated, assuming the intracellular cAMP concentration in the presence of 1 μM 3-(6-(2-(3,4-dimethoxyphenyl)ethoxy)pyridin-2-yl)-N-(2-pyrrolidin-1-ylethyl)benzamide (Reference Example 124) to be 100% and assuming the intracellular cAMP concentration when DMSO was added instead of the test compound to be 0%.

T1 sequence (Q9Y2T5 whole entry): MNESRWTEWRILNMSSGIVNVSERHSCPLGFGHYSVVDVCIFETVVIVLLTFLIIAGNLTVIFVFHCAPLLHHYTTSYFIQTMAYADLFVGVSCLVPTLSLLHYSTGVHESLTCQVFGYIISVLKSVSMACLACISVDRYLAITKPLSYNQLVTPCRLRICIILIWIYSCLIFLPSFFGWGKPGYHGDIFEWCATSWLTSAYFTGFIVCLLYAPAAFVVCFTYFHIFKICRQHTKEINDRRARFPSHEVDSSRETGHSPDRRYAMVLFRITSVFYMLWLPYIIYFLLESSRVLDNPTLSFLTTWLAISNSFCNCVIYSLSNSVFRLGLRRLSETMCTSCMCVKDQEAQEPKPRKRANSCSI

Compared with O=C(NCCO)c1cccc(-c2ccc3c(c2)N(Cc2cc(Cl)cc(Cl)c2)CC3)c1 [Example 16, 3-[1-(3,5-dichlorobenzyl)-2,3-dihydro-1H-indol-6-yl]-N-(2-hydroxyethyl)benzamide], N#CCCNC(=O)c1cccc(-c2ccc3c(c2)N(Cc2ccc(Cl)cc2Cl)CC3)c1 [Example 13, N-(2-cyanoethyl)-3-[1-(2,4-dichlorobenzyl)-2,3-dihydro-1H-indol-6-yl]benzamide] is lower in “GPR52 agonist activity (%)” value: 84% for the first, 60% for the second.

Compared with N#CCCNC(=O)c1cccc(-c2ncc3ccn(Cc4ccc(Cl)cc4Cl)c3n2)c1 [Example 40, N-(2-cyanoethyl)-3-[7-(2,4-dichlorobenzyl)-7H-pyrrolo[2,3-d]pyrimidin-2-yl]benzamide], N#CCCNC(=O)c1cccc(-c2ccc3c(c2)C(c2ccc(Cl)cc2Cl)CC3)c1 (single isomer, unassigned; (+)) [Example 63, (+)-N-(2-cyanoethyl)-3-[3-(2,4-dichlorophenyl)-2,3-dihydro-1H-inden-5-yl]benzamide] is higher in “GPR52 agonist activity (%)” value: 52% for the first, 66% for the second.

Going from N#CCCNC(=O)c1cccc(-c2ccc3c(c2)N(c2cccc(Cl)c2Cl)CC3)c1 [Example 10, N-(2-cyanoethyl)-3-[1-(2,3-dichlorophenyl)-2,3-dihydro-1H-indol-6-yl]benzamide] to NC(=O)CNC(=O)c1cccc(-c2ccc3c(c2)C(Oc2ccc(Cl)cc2Cl)CC3)c1 (stereo not shown) [Example 83, N-(2-amino-2-oxoethyl)-3-[3-(2,4-dichlorophenoxy)-2,3-dihydro-1H-inden-5-yl]benzamide], the “GPR52 agonist activity (%)” value rises from 65% to 70%.

Compared with O=C(Nc1cccnc1)c1cccc(-c2ccc3c(c2)C(Oc2ccc(Cl)cc2Cl)CC3)c1 (stereo not shown) [Example 80, 3-[3-(2,4-dichlorophenoxy)-2,3-dihydro-1H-inden-5-yl]-N-pyridin-3-ylbenzamide], O=C(Nc1nccs1)c1cccc(-c2ccc3c(c2)C(Oc2ccc(Cl)cc2Cl)CC3)c1 (stereo not shown) [Example 82, 3-[3-(2,4-dichlorophenoxy)-2,3-dihydro-1H-inden-5-yl]-N-1,3-thiazol-2-ylbenzamide] is lower in “GPR52 agonist activity (%)” value: 70% for the first, 67% for the second.

Going from COc1ccc(CCn2ccc3ccc(-c4cccc(C(=O)NCCN(C)C)c4)nc32)cc1OC [Example 25, 3-[1-[2-(3,4-dimethoxyphenyl)ethyl]-1H-pyrrolo[2,3-b]pyridin-6-yl]-N-[2-(dimethylamino)ethyl]benzamide] to COc1ccc(CCn2ccc3ccc(-c4cccc(C(=O)NCCC#N)c4)nc32)cc1OC [Example 26, N-(2-cyanoethyl)-3-[1-[2-(3,4-dimethoxyphenyl)ethyl]-1H-pyrrolo[2,3-b]pyridin-6-yl]benzamide], the “GPR52 agonist activity (%)” value falls from 80% to 62%.
